What was measured:
[1] = target: T1, Inhibitor of nuclear factor kappa-B kinase subunit beta (Homo sapiens, UniProt O14920); assay: Inhibition of IKK-beta by TR-FRET assay
T1 sequence (O14920 whole entry): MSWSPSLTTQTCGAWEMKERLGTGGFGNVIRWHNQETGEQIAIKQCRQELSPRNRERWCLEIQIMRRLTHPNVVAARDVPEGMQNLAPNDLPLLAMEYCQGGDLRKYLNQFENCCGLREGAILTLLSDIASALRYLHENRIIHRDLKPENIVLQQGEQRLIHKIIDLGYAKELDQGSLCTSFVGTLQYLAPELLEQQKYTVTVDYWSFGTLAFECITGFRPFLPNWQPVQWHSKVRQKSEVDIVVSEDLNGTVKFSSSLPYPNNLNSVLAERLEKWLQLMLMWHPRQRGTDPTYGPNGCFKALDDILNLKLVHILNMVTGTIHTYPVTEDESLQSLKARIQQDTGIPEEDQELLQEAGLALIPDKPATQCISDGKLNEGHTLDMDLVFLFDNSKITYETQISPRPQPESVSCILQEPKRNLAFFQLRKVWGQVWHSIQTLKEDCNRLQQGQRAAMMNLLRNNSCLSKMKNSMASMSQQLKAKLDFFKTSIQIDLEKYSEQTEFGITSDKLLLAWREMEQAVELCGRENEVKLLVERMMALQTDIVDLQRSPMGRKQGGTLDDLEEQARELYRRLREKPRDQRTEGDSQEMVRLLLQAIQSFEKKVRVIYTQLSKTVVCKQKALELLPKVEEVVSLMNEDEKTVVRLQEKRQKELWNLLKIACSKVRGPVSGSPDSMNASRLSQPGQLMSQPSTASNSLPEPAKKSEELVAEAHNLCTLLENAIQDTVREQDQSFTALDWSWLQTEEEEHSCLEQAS

[2] = target: T2, Inhibitor of nuclear factor kappa-B kinase subunit beta (Homo sapiens) (UniProt O14920); assay: Inhibition of IKK-beta at 10 uM by TR-FRET assay
T2 sequence (whole entry): T1 sequence (O14920 whole entry)

| SMILES | IC50 [1] [µM] | inhibition [2] [%] |
| --- | --- | --- |
| N#Cc1c(C2CCCNC2)cc(-c2ccccc2O)nc1N (stereo not drawn) | 0.174 | – |
| Cc1cc(N2CCC(O)CC2)nc2sc(C(N)=O)c(N)c12 | < 1 | – |
| COc1cc(/C=N/NC(=O)Cc2nnc(NC(=O)c3ccc([N+](=O)[O-])cc3)s2)ccc1O | 6.98 | 76.4 |
| COc1ccc(C(=O)Nc2nnc(CC(=O)N/N=C/c3ccc(O)c(OC)c3)s2)cc1 | 10.8 | 53.1 |
| CC1=NN(c2ccc(S(N)(=O)=O)cc2)C(=O)/C1=C/c1ccc(-c2ccc3c(c2)C(=O)NC3=O)o1 | 6.7 | 84.8 |

From ChEMBL document CHEMBL1165968, “IKKbeta inhibitors identification part II: ligand and structure-based virtual screening” (Bioorg Med Chem, 2010)
